Values quoted from earlier work in patent US11013684B2, “Body fluid expanders comprising N-substituted aminosulfonic acid buffers” (AQIX, Ltd., priority 2007, dated 2021).

Columns and labels:
[1] = for −ΔpKa/° C.: aqueous solution, 20° C.
cultured mammalian cells = conditions: long term studies

O=S(=O)(O)CCN(CCO)CCO [BES, N,N-bis (2-hydroxyethyl)-2-aminoethanesulfonic acid]
−ΔpKa/° C. [1]: 0.016 | toxicity to cultured mammalian cells (cultured mammalian cells): non-toxic

O=C(O)CN(CCO)CCO [BICINE, N,N-bis (2-hydroxyethyl) glycine]
−ΔpKa/° C. [1]: 0.018

O=S(=O)(O)CCN1CCN(CCS(=O)(=O)O)CC1 [PIPES, piperazine-N,N′-bis(2-ethanesulfonic acid)]
pKa @ 20° C. ([1]; aqueous solution at 20° C.): 6.80 | −ΔpKa/° C. [1]: 0.009

O=C(O)CNC(CO)(CO)CO [TRICINE, N-tris(hydroxymethyl) methylglycine]
−ΔpKa/° C. [1]: 0.021
